Experimental data taken from US9669009B2, “Rapid disperse dosage form containing levetiracetam” (APRECIA PHARMACEUTICALS COMPANY, priority 2013, dated 2017).
Entries after “also recorded” stand apart in the source; their conditions may differ. Where two headings read alike, the source gives them in different places.

Experiments:
[1] = Evaluation of antioxidants for LEV stability in raw tablet compositions (Example 6)
Procedure: The following procedures were used to identify the preferred antioxidant(s) suitable stabilizing LEV against oxidative degradation.
A powder blend containing the following ingredients in the amounts indicated was prepared.
A printing fluid containing the following ingredients in the amounts indicated was prepared.
For example, the amount of antioxidant would be “(IIG daily limit)/2” for a 1000 mg tablet administered twice daily. It should be understood that IIG limits are periodically changed by regulatory agencies. Accordingly, the limits specified below should be considered approximations and not as absolute limits to the amount of antioxidant that can be included in a dosage form.
The antioxidant was mixed with 6 mL of printing fluid. That mixture was then mixed with 30 g of powder blend to form a raw tablet composition, each of which was exposed to the following conditions: Condition 1—store composition at 70 C in tightly sealed glass jar; Condition 2—store composition at 50 C in loosely covered glass jar; and Condition 3—store composition at 40 C/75% RH in open glass jar.
The samples were subsequently analyzed by HPLC/MS and the identity of two key degradants was determined by comparison to standards. The key degradants were levetiracetam acid and oxo-levetiracetam.

[2] = accelerated (60° C.) stress: acidic, alkaline, aqueous, oxidative, thermal or photo; Shah 2012; cited from earlier work
[3] = cited from earlier work
[4] = Oxidative degradation of LEV in 3DP dosage form, HPLC/MS; format: physicochemical; conditions: antioxidant absent, oxidative excipient (povidone or silica with peroxide impurity) present
Procedure: The stability of LEV to oxidative degradation when included in a 3DP dosage form of the invention was determined by exposing finished dosage forms to heat. The formation of degradants was observed and monitored by HPLC/MS as detailed below. […] Povidone and silica, however, are important functional ingredients. Accordingly, the invention provides a stable rapidly dispersible dosage form comprising LEV, oxidative excipient, antioxidant, binder and disintegrant, wherein the matrix comprises 0.1% by wt or less of an oxidative degradant of LEV after storage for six months at 21° C. and 75% RH.
The following procedures were used to analyze three-dimensionally printed solid porous orodispersible matrices and in support of drug-stability studies.
Samples were prepared by transferring approximately 380 mg of sample to a 50-mL volumetric flask with 30 mL of Diluent. The sample was sonicated for 10 minutes then filled to volume with Diluent. A portion was filtered through a 0.22 μm nylon filter, discarding the first 3-5 mL.
Mass spectrophotometry was conducted by directly infusing a sodium formate solution into the mass spectrometer through the lock spray at 100 μL/min using a syringe pump. The sodium formate peak at m/z 158.9646126 was used for accurate mass analysis. The accurate masses were used for elemental composition analysis using the MassLynx software. […]

[5] = antioxidant at half IIG daily limit in raw tablet composition, 70 C sealed, 50 C loosely covered, 40 C/75% RH open

O=S([O-])[O-].[Na+].[Na+] [sodium sulfite, Sodium sulfite]
stability against oxidative degradation and color formation [1, 5]: improved stability against oxidative degradation and against color formation; also recorded: best results

CSCC[C@H](N)C(=O)O [methionine, Methionine]
stability against oxidative degradation and color formation [1]: improved stability against oxidative degradation and against color formation

Cc1c(C)c2c(c(C)c1O)CC[C@@](C)(CCC[C@H](C)CCC[C@H](C)CCCC(C)C)O2 [Vitamin E, Alpha-tocopherol]
stability against oxidative degradation and color formation [1]: improved stability against oxidative degradation and against color formation

O=S([O-])O.[Na+] [sodium bisulfite, Sodium bisulfite]
stability against oxidative degradation and color formation [1, 5]: improved stability against oxidative degradation and against color formation | stability against oxidative degradation and color formation ([1]; antioxidant at half IIG daily limit in raw tablet composition, 70 C sealed, 50 C loosely covered, 40 C/75% RH open, listed as Sodium bisulfite): best results

COc1ccc(O)c(C(C)(C)C)c1 [BHA, Butylated hydroxyanisole]
stability against oxidative degradation and color formation [1, 5]: improved stability against oxidative degradation and against color formation; also recorded: best results

CC[C@@H](C(N)=O)N1CCCC1=O [Levetiracetam, (S)-2-(2-oxopyrrolidin-1-yl)butanamide]
degradation under stress [2]: substantial degradation | solubility in acetonitrile ([3]; acetonitrile): 5.7 g/100 mL | solubility in chloroform ([3]; chloroform): 65.3 g/100 mL | solubility in ethanol ([3]; ethanol): 16.5 g/100 mL | solubility in methanol ([3]; methanol): 53.6 g/100 mL | solubility in n-hexane ([3]; n-hexane): practically insoluble | solubility in water ([3]; water): 104.0 g/100 mL | oxidative degradation of LEV in 3DP dosage form exposed to heat [4]: undergoes oxidative degradation to form oxo-levetiracetam
